In one assay the test system is purple nutsedge. Put plainly: Test B pre/postemergence purple nutsedge. Format: in vivo, Cyperus rotundus. In short, it runs like this: (§1)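 Herbicidal effect was estimated by eye on a ten-point control scale after plants spent twelve to sixteen days in a greenhouse following soil or foliar treatment. Foliar sprays targeted plants at one to four leaves; all doses were formulated in a non-phytotoxic solvent with surfactant.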

Another assay relates to morningglory. Put plainly: Test B pre/postemergence morningglory. The assay is classed as in vivo, Ipomoea hederacea. The gist of the method: as §1
A further assay has as its system bamyardgrass. Put plainly: Test B flood test barnyardgrass. The assay is classed as in vivo, Echinochloa crus-galli. The note with it: for Plant response rating, Barnyardgrass (0 to 10 scale, 0 is no effect, 10 is complete control) / Barnyardgrass plant response rating (0 to 10 scale, 0 is no effect, 10 is complete control): visual evaluation after twelve to sixteen days; for Barnyardgrass plant response rating (0 to 10 scale, 0 is no effect, 10 is complete control): under heading Pre-emergence. In short, it runs like this:
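Flood test on plants grown to the 2-leaf stage; treated plants kept in greenhouse twelve to sixteen days, then visually rated against controls on a 0 (no effect) to 10 (complete control) scale.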

Setting [1] is: Postemergence, Rate 250 g/ha, scale 0 to 10, 0 is no effect, 10 is complete control.
Where [2] appears, read: Postemergence, Rate 500 g/ha, scale of 0 to 10 where 0 is no effect and 10 is complete control.
Setting [3] is: Preemergence, Rate 62 g/ha, scale 0 to 10 (0 no effect, 10 complete control).
Setting [4] is: Preemergence, Rate 125 g/ha, scale of 0 to 10 where 0 is no effect and 10 is complete control.
The mark [5] stands for this setting: Preemergence, Rate 250 g/ha, scale 0 to 10, 0 is no effect, 10 is complete control.
Where [6] appears, read: Preemergence, Rate 500 g/ha, scale 0 to 10, 0 is no effect, 10 is complete control.
[7] abbreviates: Rate 62 g/ha, Postemergence, scale of 0 to 10 where 0 is no effect and 10 is complete control.
Where [8] appears, read: Postemergence (flood test), Rate 125 g/ha, scale 0 to 10, 0 is no effect, 10 is complete control.
[9] abbreviates: Postemergence section (flood test species), Rate 500 g/ha, scale of 0 to 10 where 0 is no effect and 10 is complete control.
[10] abbreviates: Rate 62 g/ha, Postemergence (flood test species), scale of 0 to 10 where 0 is no effect and 10 is complete control.
The mark [11] stands for this setting: flood test species, listed under Postemergence, Rate 250 g/ha, scale 0 to 10, 0 is no effect, 10 is complete control.
The mark [12] stands for this setting: Postemergence, Rate 250 g/ha, scale 0 to 10.
Where [13] appears, read: Preemergence, Rate 62 g/ha, scale of 0 to 10 where 0 is no effect and 10 is complete control.
Setting [14] is: Rate 62 g/ha, Postemergence, scale 0 to 10 (0 no effect, 10 complete control).
[15] abbreviates: Rate 125 g/ha, Postemergence, scale 0 to 10, 0 is no effect, 10 is complete control.
[16] abbreviates: Rate 62 g/ha, flood test species, Pre-emergence.
The mark [17] stands for this setting: Rate 125 g/ha, flood test species.
The mark [18] stands for this setting: Rate 250 g/ha, Pre-emergence (flood test species), scale 0 to 10, 0 is no effect, 10 is complete control.
The mark [19] stands for this setting: Rate 500 g/ha, Pre-emergence, flood test species, scale 0 to 10 (0 no effect, 10 complete control).
The mark [20] stands for this setting: Postemergence, Rate 62 g/ha, scale 0 to 10, 0 is no effect, 10 is complete control.
Setting [21] is: Postemergence, Rate 125 g/ha, scale of 0 to 10 where 0 is no effect and 10 is complete control.
Setting [22] is: Preemergence, Rate 250 g/ha, scale 0 to 10 (0 no effect, 10 complete control).
Where [23] appears, read: Preemergence, Rate 500 g/ha, scale of 0 to 10 where 0 is no effect and 10 is complete control.

For the molecule `CC(=O)C(C)n1c(=O)on(C(=O)N(c2ccc(F)cc2)C(C)C)c1=O` (stereo not shown) [Compound 400], the “Plant response rating, Nutsedge” value in the assay on purple nutsedge (setting [1]), with purple nutsedge (setting [3]) and in the assay on purple nutsedge (setting [4]) was 0 each time. Moreover, the “Nutsedge plant response rating” value with purple nutsedge (setting [2]), in the assay with purple nutsedge (setting [5]), with purple nutsedge (setting [6]) and in the assay on purple nutsedge (setting [7]) was 0 in each case. Moreover, the results for the “Plant response rating, Morningglory” value with morningglory (setting [1]), in the assay with morningglory (setting [3]) and in the assay on morningglory (setting [4]) were 3, 0 and 0, respectively. Also, the “Morningglory plant response rating” value amounted to 6 with morningglory (setting [2]), 0 in the assay on morningglory (setting [5]), 0 in the assay with morningglory (setting [6]) and 0 in the assay on morningglory (setting [7]). For the same molecule, the “Plant response rating, Barnyardgrass” value with bamyardgrass (setting [8]) and with bamyardgrass (setting [11]) was 0 in each case. The “Barnyardgrass plant response rating” value in the assay on bamyardgrass (setting [9]) and with bamyardgrass (setting [10]) was 0 in each case.
For `COC(C)n1c(=O)on(C(=O)N(c2ccccc2)C(C)C)c1=O` (stereo not shown) [Compound 441], the “Nutsedge plant response rating” value in the assay on purple nutsedge (setting [12]), in the assay with purple nutsedge (setting [2]), in the assay with purple nutsedge (setting [5]), in the assay on purple nutsedge (setting [6]), in the assay on purple nutsedge (setting [14]) and in the assay on purple nutsedge (setting [15]) was 0 each time. Further, the “Plant response rating, Nutsedge” value with purple nutsedge (setting [13]) and in the assay on purple nutsedge (setting [4]) was 0 throughout. Further, the “Morningglory plant response rating” value in the assay with morningglory (setting [12]), in the assay on morningglory (setting [2]), with morningglory (setting [5]), in the assay on morningglory (setting [6]), in the assay with morningglory (setting [14]) and with morningglory (setting [15]) was 0 in each case. Further, the “Plant response rating, Morningglory” value with morningglory (setting [13]) and in the assay with morningglory (setting [4]) was 0 throughout. In addition, the “Plant response rating, Barnyardgrass (0 to 10 scale, 0 is no effect, 10 is complete control)” value in the assay with bamyardgrass (setting [16]) stood at 0. Besides, the “Barnyardgrass plant response rating (0 to 10 scale, 0 is no effect, 10 is complete control)” value with bamyardgrass (setting [17]) amounted to 0. Besides, the “Barnyardgrass plant response rating” value in the assay on bamyardgrass (setting [18]) and in the assay with bamyardgrass (setting [19]) was 0 each time.
Regarding `CC(C)N(C(=O)n1oc(=O)n(CC(=O)C2CC2)c1=O)c1ccc(Cl)cc1` [Compound 639], the “Plant response rating, Nutsedge” value in the assay with purple nutsedge (setting [20]), in the assay on purple nutsedge (setting [21]), in the assay on purple nutsedge (setting [22]) and in the assay with purple nutsedge (setting [23]) was 0 throughout. In addition, the “Nutsedge plant response rating” value in the assay on purple nutsedge (setting [13]) and in the assay with purple nutsedge (setting [4]) was 0 in each case. Further, the “Plant response rating, Morningglory” value with morningglory (setting [20]) was determined as 0; with morningglory (setting [21]), 3; in the assay with morningglory (setting [2]), 7; with morningglory (setting [22]) it was 0; in the assay on morningglory (setting [23]) it was 0. Also, the “Morningglory plant response rating” value is 7 in the assay with morningglory (Postemergence, Rate 250 g/ha, scale of 0 to 10, 0 is no effect, 10 is complete control); 0 with morningglory (setting [13]); 0 in the assay on morningglory (setting [4]). Moreover, in the assay on bamyardgrass (setting [16]), the “Plant response rating, Barnyardgrass (0 to 10 scale, 0 is no effect, 10 is complete control)” value came out at 0. The “Barnyardgrass plant response rating (0 to 10 scale, 0 is no effect, 10 is complete control)” value in the assay with bamyardgrass (setting [17]) came to 0. Besides, the “Barnyardgrass plant response rating” value with bamyardgrass (setting [18]) was found to be 0; in the assay with bamyardgrass (Rate 500 g/ha, Pre-emergence section of Table B, 0 to 10 scale (0 no effect, 10 complete control)), 0.
Consider `CC(C)N(C(=O)n1oc(=O)n(CCS(C)(=O)=O)c1=O)c1ccc(F)cc1` [Compound 453], for which the “Nutsedge plant response rating” value with purple nutsedge (setting [12]), with purple nutsedge (setting [5]), with purple nutsedge (setting [14]) and in the assay with purple nutsedge (setting [15]) was 0 each time. Further, the “Plant response rating, Nutsedge” value in the assay with purple nutsedge (setting [13]) and in the assay on purple nutsedge (setting [4]) was 0 throughout. In addition, the “Morningglory plant response rating” value in the assay on morningglory (setting [12]) is recorded as 2; with morningglory (setting [5]), 0; with morningglory (setting [6]), 3; with morningglory (setting [14]) it was 0; in the assay on morningglory (setting [15]), 0. In addition, the “Plant response rating, Morningglory” value with morningglory (setting [13]) and with morningglory (setting [4]) was 0 in each case. Also, in the assay on bamyardgrass (setting [16]), the “Plant response rating, Barnyardgrass (0 to 10 scale, 0 is no effect, 10 is complete control)” value is listed as 0. The “Barnyardgrass plant response rating (0 to 10 scale, 0 is no effect, 10 is complete control)” value in the assay with bamyardgrass (setting [17]) is 0. Also, the “Barnyardgrass plant response rating” value in the assay with bamyardgrass (setting [18]) and in the assay with bamyardgrass (setting [19]) was 0 each time.
As for `CCOC(=O)C=C(Cn1c(=O)on(C(=O)N(c2ccc(F)cc2)C(C)C)c1=O)OCC` [Compound 396], the “Plant response rating, Nutsedge” value with purple nutsedge (setting [1]), with purple nutsedge (setting [3]) and with purple nutsedge (setting [4]) was 0 each time. Moreover, the “Nutsedge plant response rating” value in the assay with purple nutsedge (setting [2]), in the assay on purple nutsedge (setting [5]), in the assay on purple nutsedge (setting [6]) and with purple nutsedge (setting [7]) was 0 each time. Also, the “Plant response rating, Morningglory” value in the assay with morningglory (setting [1]) was 8; in the assay on morningglory (setting [3]) it was 0; with morningglory (setting [4]), 0. Moreover, the “Morningglory plant response rating” value in the assay with morningglory (setting [2]) came to 8; with morningglory (setting [5]), 0; in the assay with morningglory (setting [6]) it was 0; in the assay on morningglory (setting [7]), 0. In addition, the “Plant response rating, Barnyardgrass” value in the assay with bamyardgrass (setting [8]) and in the assay with bamyardgrass (setting [11]) was 0 in each case. In addition, the “Barnyardgrass plant response rating” value with bamyardgrass (setting [9]) and in the assay on bamyardgrass (setting [10]) was 0 each time.
With `CC(C)N(C(=O)n1oc(=O)n(C(CF)CF)c1=O)c1ccc(Cl)cc1` [Compound 468], the “Nutsedge plant response rating” value with purple nutsedge (setting [12]), in the assay on purple nutsedge (setting [5]), in the assay on purple nutsedge (setting [6]), in the assay with purple nutsedge (setting [14]) and with purple nutsedge (setting [15]) was 0 each time. The “Plant response rating, Nutsedge” value in the assay with purple nutsedge (setting [13]) and with purple nutsedge (setting [4]) was 0 throughout. In addition, the “Morningglory plant response rating” value was 4 in the assay with morningglory (setting [12]); 0 with morningglory (setting [5]); 2 in the assay on morningglory (setting [6]); 2 with morningglory (setting [14]); 3 in the assay on morningglory (setting [15]). For the same molecule, the “Plant response rating, Morningglory” value in the assay with morningglory (setting [13]) and with morningglory (setting [4]) was 0 throughout. Moreover, the “Plant response rating, Barnyardgrass (0 to 10 scale, 0 is no effect, 10 is complete control)” value with bamyardgrass (setting [16]) was determined as 0. Further, the “Barnyardgrass plant response rating (0 to 10 scale, 0 is no effect, 10 is complete control)” value in the assay on bamyardgrass (setting [17]) came to 0. Further, the “Barnyardgrass plant response rating” value in the assay on bamyardgrass (setting [18]) and in the assay with bamyardgrass (setting [19]) was 0 each time.

The values above are taken from patent publication US6737383B1, “Herbicidal oxadiazolidines” (priority 1999, dated 2004).
